Assay results as given in US10597398B2, “Suppression and regeneration promoting effect of low molecular weight compound on cancer and fibrosis” (NATIONAL UNIVERSITY CORPORATION TOTTORI UNIVERSITY, priority 2015, dated 2020).

How the values were obtained:
Assay type in all cases: cell-based, human
Wnt/β-catenin signaling [1] = assay: Inhibitory effect on Wnt/β-catenin signaling in liver stellate cells (LX-2, TCF4 luciferase); conditions: concentration equal to or lower than that of IC-2
Description: While each compound was added at concentrations where the cell growth of fibrosis-causing liver stellate LX-2 cells was reduced to about 50 to 80%, Wnt/β-catenin signaling activity was measured. […] The concentrations of the respective compounds were as described in FIG. 41. Each control sample used was 0.1% DMSO, a solvent for each compound.
LX-2 cells, which were cultured and maintained by using 10% FBS/DMEM, were harvested and seeded (n=3) in 1% FBS/DMEM at 4.0×10^4 cells per well of a 24-well plate. Next, 25 μL of Opti-MEM (Gibco, Life Technologies Corp., Carlsbad, Calif.) containing 50 ng of pTCF4-CMVpro-GL4.20, having 3 copies of TCF motifs (CCT TTG ATC) upstream of a CMV promoter in a multiple cloning site of pGL4.20 (Promega), and 5 ng of pRL-CMV Vector (Promega) and 25 μL of Opti-MEM containing 0.4 μL of Lipofectamine 2000 (Invitrogen, Life Technologies Corp., Carlsbad, Calif.) were mixed and incubated at room temperature for 20 min. At 20 h after the cell seeding, the mixture was added to each well, so that both reporter plasmids were transiently transfected into the cells. After additional 4 h, 2.5 ng/mL of TGF-β and each compound were added to the cells and the mixture was cultured at 37° C.
At 24 and 48 h after the compound treatment, the culture medium was discarded, and 100 μL of room temperature 5×Passive Lysis Buffer (PLB), which had been diluted 5-fold with MilliQ water, was added to each well. Next, the plate was shaken at room temperature for 15 min and was then frozen at −30° C. overnight. A Luciferase Assay Substrate was diluted with 10 mL of room temperature Luciferase Assay Buffer II to prepare Luciferase Assay Reagent II (LARII). Then, 1 μL of Stop&Glo Substrate was diluted with 49 μL of room temperature Stop&Glo Buffer to prepare Stop&Glo (Promega) in a quantity enough for samples.
The frozen PLB lysate samples were thawed and permeabilized for 15 min. After that, 50 μl aliquots of LARII were dispensed into 3.5 mL test tubes (Sarstedt, AG & Co., Numbrecht, Germany) and 10 μL of each frozen PLB lysate sample was added and mixed well. Subsequently, luminescence was quantified by using a MiniLumat LB 9506 (Berthold Technologies GmbH & Co, Bad Wildbad, Germany) to measure firefly luciferase activity. After the measurement, 50 μL of Stop&Glo was added and mixed well and luminescence was then quantified by using the MiniLumat LB 9506 to determine Renilla luciferase activity. The measurement results were obtained by dividing the firefly luciferase activity by the Renilla luciferase activity.

HuH-7 cells = assay: Growth inhibitory effect on cancer cells (WST assay), Example 2.3; conditions: for IC50: HuH-7 cells, WST assay, concentrations 0-50 μM, control 0.1% DMSO; for IC50 compared with IC-2: comparison with IC-2
Description: HuH-7 cells, a human liver cancer cell line, were cultured on 10-cm cell culture dishes (TPP Techno Plastic Products AG, Trasadingen, Switzerland) by using DMEM under conditions at 5% CO2, 37° C., and 100% humidity. When the cells were 70 to 90% confluent, 200 μL of 0.25% Trypsin/1 mM EDTA solution, which had been prepared by diluting the stock solution 10-fold with PBS (−), was added to detach the cells. Then, the cells were centrifuged at 1000 rpm for 3 min at room temperature. The cells recovered were subcultured at a 1:4 split ratio.
First, 70 to 90% confluent HuH-7 cells were harvested and seeded (n=3) at 5×10^3 cells/well of a 96-well plate (TPP). After 24 h, each compound was added to the cells and the mixture was cultured at 37° C. The concentrations of each compound were 0, 10, 20, 30, 40, and 50 μM. For IC-2-506-1, however, the concentrations used were 0, 10, 20, 25, 30, 40, and 50 μM. Each control sample (0 μM) used was 0.1% DMSO, a solvent for each compound.
Next, 0, 24, 48, and 96 h after the compound treatment, 100 μIL of DMEM-diluted 10% Cell Counting Kit-8 (DOJINDO LABORATORIES, Kumamoto) was added. The mixture was incubated at 37° C. for 60 min and its absorbance (at a measurement wavelength of 450 nm/control wavelength of 600 nm) was measured by using a Sunrise Rainbow RC (Tecan Group Ltd., Mannedorf, Switzerland). Absorbance for the cells alone was calculated by subtracting, from the reading obtained, absorbance for 10% Cell Counting Kit-8 alone.
The “*” in figures indicates a significant difference of p<0.05 between 0.1% DMSO and each compound; and the “**” indicates a significant difference of p<0.01 (the same applies to all the figures in Examples).

Wnt/β-catenin signaling [2] = assay: Inhibitory effect on Wnt/β-catenin signaling in mesenchymal stem cells (E7-TCF4 luciferase); conditions: for inhibitory effect on Wnt/β-catenin signaling in mesenchymal stem cells: E7-TCF4 cells, day 8 after compound addition, compared with control 0.1% DMSO; for inhibitory effect on Wnt/β-catenin signaling pathway in mesenchymal stem cells compared with IC-2: concentration equal to or lower than that of IC-2
Description: A pTCF4-CMVpro-GL4.20 plasmid vector, having 3 copies of TCF4 motifs (CCT TTG ATC) upstream of aCMV promoter in a multiple cloning site of pGL4.20 (Promega Corp., Fitchburg, Wis.), was linearized and stably transfected into UE7T-13 cells to prepare E7-TCF4 cells. Also, a pCMVpro-GL4.20 plasmid vector, having a CMV promoter in a multiple cloning site of pGL4.20, was linearized and stably transfected into UE7T-13 cells. The resulting stable cells (E7-CMV cells) were cultured, like UE7T-13 cells, in 10% FBS/DMEM containing 0.25 μg/mL puromycin.
UE7T-13 cells were used to measure Wnt/β-catenin signaling activity. The concentrations of the respective compounds were as described in FIG. 42. Each control sample used was 0.1% DMSO, a solvent for each compound.
First, 70 to 90% confluent E7-TCF4 cells and E7-CMV cells were harvested and seeded (n=3) at 1.6758×10^4 cells/well of a 24-well plate (9.0×10^3 cells/cm^2). One day after that, each compound was added to the cells and the mixture was cultured at 37° C. Day 4 after the compound addition, the culture medium was changed.
At day 1, 4, or 8 after the compound treatment, the culture medium was discarded, and 100 μL of room temperature 5×Passive Lysis Buffer (PLB), which had been diluted 5-fold with MilliQ water, was added to each well. Next, the plate was shaken at room temperature for 15 min and was then frozen at −30° C. overnight. A Luciferase Assay Substrate was diluted with 10 mL of room temperature Luciferase Assay Buffer II to prepare Luciferase Assay Reagent II (LARII). The frozen PLB lysate samples were thawed and permeabilized for 15 min. Then, 10 μL aliquots were added to wells of a 96-well white plate. While 50 μL aliquots of LARII were each added to each well, luminescence was quantified by using a 1420 multi-label counter ARVO MX to determine firefly luciferase activity.

LX-2 cells = assay: Anti-fibrosis effect, summary statements on Example 3 (marker not specified); conditions: for anti-fibrosis effect compared with IC-2, equal or higher concentration: concentration equal to or higher than that of IC-2
Description: α-Smooth muscle actin (α-SMA), a fibrosis marker, was used as an indicator, and RNA was collected from LX-2 cells treated with each low-molecular-weight compound. Next, an inhibitory effect on fibrosis was examined by real-time RT-PCR.
In addition, instead of α-SMA, another fibrosis marker collagen, type I, alpha 1 (COL1A1) was used as an indicator, and substantially the same protocol was repeated. The concentrations of each compound used were as described in FIG. 34. Each control sample used was 0.1% DMSO, a solvent for each compound. Here, COL1A1 primers used were 5′-CCT CCA GGG CTC CAA CGA G-3′ and 5′-TCAATCACTGTCTTGCCCCA-3′. The annealing was performed at 58° C. for 5 sec. The measurement results were obtained by dividing the calculated value for the COL1A1 gene by the calculated value for the GAPDH gene.

Wnt/β-catenin signaling [3] = assay: Inhibitory effect on Wnt/β-catenin signaling in liver cancer cells (HuH7-TCF4 luciferase); conditions: concentration equal to or lower than that of IC-2
Description: A pTCF4-CMVpro-GL4.20 plasmid vector, which had been constructed by inserting 3 copies of TCF4 motifs (CCT TTG ATC) upstream of a CMV promoter into a multiple cloning site of pGL4.20 (Promega Corp., Fitchburg, Wis.), was linearized and stably transfected into the HuH-7 cells. The resulting stable cells (HuH7-TCF4 cells) and HuH-7 cells were likewise cultured.
While each compound was added at concentrations where the growth of HuH-7 cells was reduced to about 50% or less, Wnt/β-catenin signaling activity was measured. The concentrations of the respective compounds were as described in FIG. 40. Control samples used were 0.1% DMSO, a solvent for each compound, and 0.5 μM 5-FU.
First, 70 to 90% confluent HuH7-TCF4 cells were harvested and seeded (n=3) at 5.0×10^4 cells/well of a 24-well plate (TPP). After 24 h, each compound was added to the cells and the mixture was cultured at 37° C.
At 48 h after the compound treatment, the culture medium was discarded, and 100 μL of room temperature 5×Passive Lysis Buffer (PLB) (Promega Corp., Fitchburg, Wis.), which had been diluted 5-fold with MilliQ water, was added to each well. Next, the plate was shaken at room temperature for 15 min and was then frozen at −30° C. overnight. A Luciferase Assay Substrate was diluted with 10 mL of room temperature Luciferase Assay Buffer II to prepare Luciferase Assay Reagent II (LARII) (Promega). The frozen PLB lysate samples were thawed and permeabilized for 15 min. Then, 10 μL aliquots were added to wells of a 96-well white plate (Corning Inc., Corning, N.Y.). While 50 μL aliquots of LARII were each added to each well, luminescence was quantified by using a 1420 multi-label counter ARVO MX (PerkinElmer Singapore Pte Ltd., Singapore) to determine firefly luciferase activity. Note that a significant difference was evaluated by using (two-tailed) Student's t-test. The “*” in figures indicates a significant difference of p<0.05 between 0.1% DMSO and each compound; and the “**” indicates a significant difference of p<0.01 (the same applies to all the figures in Examples).

SMILES	inhibitory effect on Wnt/β-catenin signaling pathway in liver stellate cells compared with IC-2 (Wnt/β-catenin signaling [1])	IC50 (HuH-7 cells)	anti-fibrosis effect compared with IC-2, equal or higher concentration (LX-2 cells)	inhibitory effect on Wnt/β-catenin signaling pathway in liver cancer cells compared with IC-2 (Wnt/β-catenin signaling [3])	IC50 compared with IC-2 (HuH-7 cells)	further results
O=C1C(Cc2ccccc2)N2C(=O)CCN(c3ccccc3[N+](=O)[O-])C2CN1Cc1cccc2ccccc12 (stereo not drawn) [Compound 7c-NT]	more potent inhibitory effect	36.1 µM				inhibitory effect on Wnt/β-catenin signaling in mesenchymal stem cells (Wnt/β-catenin signaling [2]): all the compounds except for IC-2-Ar-OMe, 9b, and 7c-NT exhibited a significant inhibitory effect
O=C1C(Cc2ccccc2)N2C(=O)CCN(C(=O)NCc3ccccc3)C2CN1Cc1cccc(Cl)c1Cl (stereo not drawn) [IC-2-506-1]	more potent inhibitory effect	14.1 µM	more potent anti-fibrosis effect	more potent inhibitory effect	lower IC50 than IC-2	anti-tumor effect compared with IC-2 (HuH-7 cells; at a concentration lower than that of IC-2): more potent anti-tumor effect
O=C1C(Cc2ccccc2)N2C(=O)CCN(C(=O)NCc3ccccc3)C2CN1Cc1ccc(Cl)c(Cl)c1 (stereo not drawn) [IC-2-506-3]	more potent inhibitory effect	18.3 µM			lower IC50 than IC-2	anti-fibrosis effect compared with IC-2, lower concentration (LX-2 cells; concentration even lower than that of IC-2): more potent anti-fibrosis effect
COc1ccc(CN2CC3N(C(=O)NCc4ccccc4)CCC(=O)N3C(Cc3ccccc3)C2=O)cc1 (stereo not drawn) [IC-2-Ar-OMe]						inhibitory effect on Wnt/β-catenin signaling in mesenchymal stem cells (Wnt/β-catenin signaling [2]): all the compounds except for IC-2-Ar-OMe, 9b, and 7c-NT exhibited a significant inhibitory effect
O=C1C(Cc2ccccc2)N2C(=O)CCN(C(=O)NCc3ccccc3)C2CN1Cc1ccc(Cl)cc1 (stereo not drawn) [IC-2-Ar—Cl]		45.1 µM	more potent anti-fibrosis effect	more potent inhibitory effect		inhibitory effect on Wnt/β-catenin signaling pathway in mesenchymal stem cells compared with IC-2 (Wnt/β-catenin signaling [2]): more potent inhibitory effect
O=C1C(Cc2ccccc2)N2C(=O)CCN(C(=O)NCc3ccccc3)C2CN1Cc1ccc([N+](=O)[O-])cc1 (stereo not drawn) [IC-2-Ar—NO2]						inhibitory effect on Wnt/β-catenin signaling pathway in mesenchymal stem cells compared with IC-2 (Wnt/β-catenin signaling [2]): more potent inhibitory effect
O=C1C(Cc2ccccc2)N2C(=O)CCN(C(=O)NCc3ccc(O)cc3)C2CN1Cc1cccc2ccccc12 (stereo not drawn) [IC-2-OH]		33.5 µM	more potent anti-fibrosis effect	more potent inhibitory effect		
COCOc1ccc(CNC(=O)N2CCC(=O)N3C(Cc4ccccc4)C(=O)N(Cc4cccc5ccccc45)CC23)cc1 (stereo not drawn) [IC-2-OMOM]		20.3 µM		more potent inhibitory effect	lower IC50 than IC-2	
COc1ccc(CNC(=O)N2CCC(=O)N3C(Cc4ccccc4)C(=O)N(Cc4cccc5ccccc45)CC23)cc1 (stereo not drawn) [IC-2-OMe]		34.9 µM		more potent inhibitory effect		
